Columns and labels:
[1] = target: T1, CDK12 (nuclear staining in CAL-120 cells) (Homo sapiens, UniProt Q9NYV4); assay: CDK12 nuclear protein level: immunofluorescence/high content analysis (CAL-120); type: cell-based; details: for DC50: CAL-120 cells, 24 h, immunofluorescence, 50% reduction of nuclear CDK12 staining intensity, median, read-out: CDK12 degradation IF, DC50- [mol/l] (median); for (IC50 CDK12 high ATP) to (Degradation DC50 CDK12) ratio: ratio of IC50 CDK12 high ATP kinase assay to DC50 CDK12 degradation (IF, CAL-120)
T1 construct: endogenous in cells; host or cells: CAL-120 human breast cancer cells (DSMZ ACC 459)
In short: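 DC50 is the degrader concentration that halves nuclear CDK12 immunofluorescence relative to controls, measured by high-content imaging. CAL-120 cells were exposed to compound for 24 h at 37 °C before PFA fixation, and signal was normalized to DMSO and control wells.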

[2] = tested on: BRCA1 mRNA expression in MDA-MB-231 cells; assay: qRT-PCR assay: BRCA1 mRNA expression in MDA-MB-231; type: cell-based, human; details: Homo sapiens, MDA-MB-231, Inhibition of BRCA1 mRNA expression in MDA-MB-231 cells; median; read-out: RTqPCR-MDA-MB-231, IC50, BRCA1 (median)
In short: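 BRCA1 transcript by RT-qPCR relative to GAPDH, from 600 ng RNA converted to cDNA. MDA-MB-231 cells plated at 200,000/well received test compound continuously for 24 h, starting 24 h post-seeding.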

[3] = tested on: CAL-120, human breast adenocarcinoma cells; assay: Proliferation assay CAL-120 (crystal violet, 4 days); type: cell-based; details: Homo sapiens, CAL-120, 96 h, CAL-120 cells, median, read-out: Prolif-CAL-120, IC50-[mol/l] (median)
In short: (§1)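 IC50 from a 4-parameter fit of crystal violet absorbance (595 nm), scaled between the day-of-dosing plate (0%) and vehicle cells (100%). MDA-MB-231 or CAL-120 cells were treated for 4 days with 0.01–10 micromol/L compound in 0.1% DMSO after 24 h attachment.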

[4] = tested on: MDA-MB-231, human breast cancer cells; assay: Proliferation assay MDA-MB-231 (crystal violet, 4 days); type: cell-based; details: Homo sapiens, MDA-MB-231, 96 h, MDA-MB-231 cells, median, read-out: Prolif-MDA MB-231, IC50-[mol/l] (median)
In short: as §1

T1 sequence (Q9NYV4 whole entry): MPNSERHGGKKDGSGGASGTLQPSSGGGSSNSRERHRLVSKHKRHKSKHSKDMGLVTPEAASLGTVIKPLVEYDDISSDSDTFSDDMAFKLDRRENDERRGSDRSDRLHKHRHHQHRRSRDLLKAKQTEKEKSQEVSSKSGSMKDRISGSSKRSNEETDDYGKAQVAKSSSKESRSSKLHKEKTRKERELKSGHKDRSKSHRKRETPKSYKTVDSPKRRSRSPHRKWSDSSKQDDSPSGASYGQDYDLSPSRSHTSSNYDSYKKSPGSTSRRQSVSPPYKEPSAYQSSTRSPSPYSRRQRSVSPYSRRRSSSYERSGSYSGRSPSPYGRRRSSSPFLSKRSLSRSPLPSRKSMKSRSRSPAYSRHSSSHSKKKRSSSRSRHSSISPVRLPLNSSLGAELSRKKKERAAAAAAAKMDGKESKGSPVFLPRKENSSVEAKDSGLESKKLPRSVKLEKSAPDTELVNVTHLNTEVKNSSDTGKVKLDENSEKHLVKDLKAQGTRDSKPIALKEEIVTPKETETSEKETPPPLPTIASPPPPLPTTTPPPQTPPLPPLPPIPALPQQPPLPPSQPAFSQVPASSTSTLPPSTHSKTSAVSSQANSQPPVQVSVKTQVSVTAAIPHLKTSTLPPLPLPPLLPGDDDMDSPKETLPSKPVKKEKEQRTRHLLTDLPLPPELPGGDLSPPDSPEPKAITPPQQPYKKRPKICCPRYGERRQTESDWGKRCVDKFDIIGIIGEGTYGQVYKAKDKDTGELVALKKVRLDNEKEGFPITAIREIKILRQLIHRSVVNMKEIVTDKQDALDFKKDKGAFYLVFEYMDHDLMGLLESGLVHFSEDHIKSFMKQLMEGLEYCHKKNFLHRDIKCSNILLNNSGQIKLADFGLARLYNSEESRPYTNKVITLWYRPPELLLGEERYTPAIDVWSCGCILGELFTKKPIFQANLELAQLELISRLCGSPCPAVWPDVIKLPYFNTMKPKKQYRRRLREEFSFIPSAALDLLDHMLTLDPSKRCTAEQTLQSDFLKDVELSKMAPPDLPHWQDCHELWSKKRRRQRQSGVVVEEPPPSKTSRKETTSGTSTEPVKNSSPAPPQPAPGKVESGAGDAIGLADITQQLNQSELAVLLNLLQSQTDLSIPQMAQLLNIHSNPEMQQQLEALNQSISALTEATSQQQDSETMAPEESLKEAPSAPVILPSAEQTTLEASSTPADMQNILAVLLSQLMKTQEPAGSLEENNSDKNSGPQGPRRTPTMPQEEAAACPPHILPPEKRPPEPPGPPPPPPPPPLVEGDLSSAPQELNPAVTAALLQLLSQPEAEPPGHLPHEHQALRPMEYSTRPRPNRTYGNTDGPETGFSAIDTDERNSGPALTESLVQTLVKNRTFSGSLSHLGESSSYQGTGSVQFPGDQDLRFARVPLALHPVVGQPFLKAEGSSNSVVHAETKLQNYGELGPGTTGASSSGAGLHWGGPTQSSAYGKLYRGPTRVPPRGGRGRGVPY
T1 sequence (O75909 whole entry partner): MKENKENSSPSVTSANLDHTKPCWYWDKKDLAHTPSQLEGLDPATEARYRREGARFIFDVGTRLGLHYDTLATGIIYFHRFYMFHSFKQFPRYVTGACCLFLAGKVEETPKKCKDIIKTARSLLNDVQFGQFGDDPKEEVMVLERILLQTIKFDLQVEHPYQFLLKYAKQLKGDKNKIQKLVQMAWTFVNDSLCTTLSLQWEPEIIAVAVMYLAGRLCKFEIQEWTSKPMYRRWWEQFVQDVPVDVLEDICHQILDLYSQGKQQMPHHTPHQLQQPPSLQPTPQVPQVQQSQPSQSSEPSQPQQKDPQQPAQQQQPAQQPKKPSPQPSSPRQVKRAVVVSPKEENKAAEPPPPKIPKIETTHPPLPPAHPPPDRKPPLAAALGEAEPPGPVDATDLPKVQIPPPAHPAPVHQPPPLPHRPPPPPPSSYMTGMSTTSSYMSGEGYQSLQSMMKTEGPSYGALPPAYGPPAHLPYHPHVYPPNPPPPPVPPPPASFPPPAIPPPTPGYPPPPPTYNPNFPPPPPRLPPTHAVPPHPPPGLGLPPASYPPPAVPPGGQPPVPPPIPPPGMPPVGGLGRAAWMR

| SMILES | DC50 [1] [nM] | (IC50 CDK12 high ATP) to (Degradation DC50 CDK12) ratio [1] | IC50 [2] [nM] | IC50 [3] [nM] | IC50 [4] [nM] |
| --- | --- | --- | --- | --- | --- |
| CC(C)c1cnn2c(NCc3ncc(-c4ccccc4)[nH]3)nc(N3CCCCC3)nc12 [Example 36, N-[(5-phenyl-1H-imidazol-2-yl)methyl]-2-(piperidin-1-yl)-8-(propan-2-yl)pyrazolo[1,5-a][1,3,5]triazin-4-amine] | 86.5 | >231 | 128 | – | – |
| CC(C)c1cnn2c(NCc3nnc(-c4ccccc4)[nH]3)nc(N3CCN(C)CC3)nc12 [Example 37, 2-(4-methylpiperazin-1-yl)-N-[(5-phenyl-4H-1,2,4-triazol-3-yl)methyl]-8-(propan-2-yl)pyrazolo[1,5-a][1,3,5]triazin-4-amine] | 42.8 | >467 | – | – | – |
| CN(C)CCOc1nc(NCc2nc3ccccc3[nH]2)n2ncc(Br)c2n1 [Example 399, N-[(1H-benzimidazol-2-yl)methyl]-8-bromo-2-[2-(dimethylamino)ethoxy]pyrazolo[1,5-a][1,3,5]triazin-4-amine] | 66 | >303 | – | 83 | 384 |
| Cc1cnn2c(NCc3nc4ccccc4[nH]3)nc(N3CC4CCC(C3)N4)nc12 [Example 401, N-[(1H-benzimidazol-2-yl)methyl]-2-(3,8-diazabicyclo[3.2.1]octan-3-yl)-8-methylpyrazolo[1,5-a][1,3,5]triazin-4-amine] | 30.8 | >649 | – | 43.5 | 132 |
| COC(C)(C)COc1nc(NCc2nc3ccccc3[nH]2)n2ncc(Br)c2n1 [Example 403, N-[(1H-benzimidazol-2-yl)methyl]-8-bromo-2-(2-methoxy-2-methylpropoxy)pyrazolo[1,5-a][1,3,5]triazin-4-amine] | 43.1 | >464 | – | 151 | 524 |
| Brc1cnn2c(NCc3nc4ccccc4[nH]3)nc(OCCN3CCCC3)nc12 [Example 404, N-[(1H-benzimidazol-2-yl)methyl]-8-bromo-2-[2-(pyrrolidin-1-yl)ethoxy]pyrazolo[1,5-a][1,3,5]triazin-4-amine] | 114 | >175 | – | 189 | 1840 |
| Brc1cnn2c(NCc3nc4ccccc4[nH]3)nc(OC3CCOCC3)nc12 [Example 405, N-[(1H-benzimidazol-2-yl)methyl]-8-bromo-2-[(oxan-4-yl)oxy]pyrazolo[1,5-a][1,3,5]triazin-4-amine] | 113 | >176 | – | 135 | 439 |
| Brc1cnn2c(NCc3nc4ccccc4[nH]3)nc(OC3CCCCC3)nc12 [Example 406, N-[(1H-benzimidazol-2-yl)methyl]-8-bromo-2-(cyclohexyloxy)pyrazolo[1,5-a][1,3,5]triazin-4-amine] | 125 | >160 | – | 62.2 | 283 |
| Brc1cnn2c(NCc3nc4ccccc4[nH]3)nc(OCC3CC3)nc12 [Example 408, N-[(1H-benzimidazol-2-yl)methyl]-8-bromo-2-(cyclopropylmethoxy)pyrazolo[1,5-a][1,3,5]triazin-4-amine] | 56.8 | >352 | – | 252 | 741 |
| NCCOCCOCCNc1nc(NCc2nc3ccccc3[nH]2)n2ncc(Br)c2n1 [Example 412, N2-{2-[2-(2-aminoethoxy)ethoxy]ethyl}-N4-[(1H-benzimidazol-2-yl)methyl]-8-bromopyrazolo[1,5-a][1,3,5]triazine-2,4-diamine] | 77.4 | >74 | – | 1130 | 1910 |
| CN1CCN(c2nc(NCc3nc4c(F)c(F)ccc4[nH]3)n3ncc(-c4nccs4)c3n2)CC1 [Example 415, N-[(4,5-difluoro-1H-benzimidazol-2-yl)methyl]-2-(4-methylpiperazin-1-yl)-8-(1,3-thiazol-2-yl)pyrazolo[1,5-a][1,3,5]triazin-4-amine] | 105 | >191 | – | 268 | 584 |
| CN1CCN(c2nc(NCc3nc4cc(Cl)c(Cl)cc4[nH]3)n3ncc(-c4cnn(C)c4)c3n2)CC1 [Example 420, N-[(5,6-dichloro-1H-benzimidazol-2-yl)methyl]-2-(4-methylpiperazin-1-yl)-8-(1-methyl-1H-pyrazol-4-yl)pyrazolo[1,5-a][1,3,5]triazin-4-amine] | 80.6 | >248 | – | 209 | 525 |

The remaining lines, values ahead:

| DC50 [1] [nM] | (IC50 CDK12 high ATP) to (Degradation DC50 CDK12) ratio [1] | IC50 [2] [nM] | IC50 [3] [nM] | IC50 [4] [nM] | SMILES |
| --- | --- | --- | --- | --- | --- |
| 27.3 | 81 | 39 | – | – | CC(C)c1cnn2c(NCc3ncc(-c4ccccc4)[nH]3)nc(N(C)CC(C)(C)O)nc12 [Example 35, 2-methyl-1-{methyl[4-{[(5-phenyl-1H-imidazol-2-yl)methyl]amino}-8-(propan-2-yl)pyrazolo[1,5-a][1,3,5]triazin-2-yl]amino}propan-2-ol] |
| 37.2 | >153 | – | – | – | CCNc1nc(NCc2nnc(-c3ccccc3)[nH]2)n2ncc(C(C)C)c2n1 [Example 38, N^2-ethyl-N^4-[(5-phenyl-4H-1,2,4-triazol-3-yl)methyl]-8-(propan-2-yl)pyrazolo[1,5-a][1,3,5]triazine-2,4-diamine] |
| 4.06 | – | 3670 | 11800 | – | Fc1ccc(-c2nnc(CNc3nc(N4CCOCC4)nc4c(Br)cnn34)[nH]2)c(F)c1 [Example 41, 8-bromo-N-{[5-(2,4-difluorophenyl)-4H-1,2,4-triazol-3-yl]methyl}-2-(morpholin-4-yl)pyrazolo[1,5-a][1,3,5]triazin-4-amine] |
| 22.3 | >897 | – | 46.8 | 120 | Cc1cnn2c(NCc3nc4ccccc4[nH]3)nc(N3CCOCC3)nc12 [Example 393, N-[(1H-benzimidazol-2-yl)methyl]-8-methyl-2-(morpholin-4-yl)pyrazolo[1,5-a][1,3,5]triazin-4-amine] |
| 19.4 | >1031 | – | 55 | 157 | Cc1cnn2c(NCc3nc4ccccc4[nH]3)nc(N3CCN(C)CC3)nc12 [Example 396, N-[(1H-benzimidazol-2-yl)methyl]-8-methyl-2-(4-methylpiperazin-1-yl)pyrazolo[1,5-a][1,3,5]triazin-4-amine] |
| 28.1 | >623 | – | 171 | 399 | Cc1cnn2c(NCc3nc4ccccc4[nH]3)nc(N(C)CC(C)(C)O)nc12 [Example 397, 1-[(4-{[(1H-benzimidazol-2-yl)methyl]amino}-8-methylpyrazolo[1,5-a][1,3,5]triazin-2-yl)(methyl)amino]-2-methylpropan-2-ol] |
| 29.8 | >531 | – | 99 | 343 | CC(C)COc1nc(NCc2nc3ccccc3[nH]2)n2ncc(Br)c2n1 [Example 409, N-[(1H-benzimidazol-2-yl)methyl]-8-bromo-2-(2-methylpropoxy)pyrazolo[1,5-a][1,3,5]triazin-4-amine] |
| 32.5 | >176 | – | 80.4 | 687 | COc1cccc2[nH]c(CNc3nc(N4CCOCC4)nc4c(-c5nccs5)cnn34)nc12 [Example 414, N-[(4-methoxy-1H-benzimidazol-2-yl)methyl]-2-(morpholin-4-yl)-8-(1,3-thiazol-2-yl)pyrazolo [1,5-a][1,3,5]triazin-4-amine] |
| 26.1 | >765 | – | 358 | 986 | COc1cccc2nc(CNc3nc(N4CCN(C)CC4)nc4c(-c5nccs5)cnn34)[nH]c12 [Example 416, N-[(7-methoxy-1H-benzimidazol-2-yl)methyl]-2-(4-methylpiperazin-1-yl)-8-(1,3-thiazol-2-yl)pyrazolo[1,5-a][1,3,5]triazin-4-amine] |
| 38.1 | >524 | – | 41.1 | 73.7 | Clc1cc2nc(CNc3nc(N4CCOCC4)nc4c(-c5cscn5)cnn34)[nH]c2cc1Cl [Example 424, N-[(5,6-dichloro-1H-benzimidazol-2-yl)methyl]-2-(morpholin-4-yl)-8-(1,3-thiazol-4-yl)pyrazolo [1,5-a][1,3,5]triazin-4-amine] |

— patent US20230117034A1, “PYRAZOLOTRIAZINES” (Bayer Aktiengesellschaft, priority 2019, published 2023)
